Data published in US20230265151A1, “GIP/GLP1 CO-AGONIST COMPOUNDS” (priority 2020, published 2023).
Where two headings read alike, the source gives them in different places.

Experiments:
hGIPR = molecular target: T1, hGIPR (Homo sapiens, UniProt P48546); test: Functional cAMP formation (HTRF) in HEK-293 clonal cells expressing hGIPR, 0.1% bovine casein, without or with 1.0% human serum albumin; format: cell-based; settings: for EC50: geometric mean, read-out: hGIPR EC50, nM (SEM, n); for Emax: read-out: hGIPR Emax, % ± SEM
T1 construct: expressed in transfected cells
T1 sequence (P48546 22-466): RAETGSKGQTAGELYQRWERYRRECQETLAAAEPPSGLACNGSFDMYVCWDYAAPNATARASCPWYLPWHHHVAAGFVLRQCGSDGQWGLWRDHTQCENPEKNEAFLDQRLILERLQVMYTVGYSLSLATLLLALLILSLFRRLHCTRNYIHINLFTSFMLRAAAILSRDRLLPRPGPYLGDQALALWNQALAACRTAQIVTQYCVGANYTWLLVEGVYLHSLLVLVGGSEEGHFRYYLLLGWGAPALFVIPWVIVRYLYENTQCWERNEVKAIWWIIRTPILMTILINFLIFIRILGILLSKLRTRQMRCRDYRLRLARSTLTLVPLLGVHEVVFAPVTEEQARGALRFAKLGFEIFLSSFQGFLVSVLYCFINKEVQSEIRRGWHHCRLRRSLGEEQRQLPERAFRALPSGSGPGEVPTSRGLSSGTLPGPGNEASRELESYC
Summary of the method: (§1)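 Readings of the HTRF 665/620 nm ratio, which falls as cAMP rises, were converted to nM cAMP using a standard curve after 30 min peptide exposure at 37° C.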

hGCGR = molecular target: T2, hGCGR (Homo sapiens, UniProt P47871); test: Functional cAMP formation (HTRF) in HEK-293 clonal cells expressing hGCGR, 0.1% bovine casein, without or with 1.0% human serum albumin; format: cell-based; settings: geometric mean, read-out: hGCGR EC50, nM (SEM, n)
T2 construct: expressed in transfected cells
Summary of the method: as §1

[1] = molecular target: T3, human Gcg receptor (hGcgR) (Homo sapiens, UniProt P47871); test: [125I]-Glucagon binding, SPA with membranes of HEK293 cells expressing hGcgR; settings: human GcgR; geometric mean (SEM, n); read-out: Binding Affinity Ki, nM (SEM, n) hGCGR
T3 construct: expressed in transfected cells; crude membranes
Experimental: Two methods are used for the preparation of crude cell membranes.
Method 1: Frozen cell pellets are lysed on ice in hypotonic buffer containing 50 mM Tris HCl, pH 7.5, and Roche Complete™ Protease Inhibitors with EDTA. […] The homogenate is centrifuged at 4° C. at 1100 × g for 10 minutes. The supernatant is collected and stored on ice while the pellets are resuspended in homogenization buffer and rehomogenized as described above. The homogenate is centrifuged at 1100 × g for 10 minutes. The second supernatant is combined with the first supernatant and centrifuged at 35000 × g for 1 hour at 4° C. The resulting membrane pellet is resuspended in homogenization buffer containing protease inhibitors at approximately 1 to 3 mg/mL, quick frozen in liquid nitrogen and stored as aliquots in a -80° C. freezer until use.
The homogenate is centrifuged at 4° C. at 1800 × g for 15 minutes. The supernatant is collected and stored on ice while the pellets are resuspended in homogenization buffer (without DNAse I) and rehomogenized as described above. The homogenate is centrifuged at 1800 × g for 15 minutes. The second supernatant is combined with the first supernatant and centrifuged an additional time at 1800 × g for 15 minutes. The overall supernatant is then centrifuged at 25000 × g for 30 minutes at 4° C. The resulting membrane pellet is resuspended in homogenization buffer (without DNAse I) containing protease inhibitors at approximately 1 to 3 mg/mL and stored as aliquots in a -80° C. freezer until use.
The human Gcg receptor binding assays are performed using a Scintillation Proximity Assay (SPA) format with wheat germ agglutinin (WGA) beads (Perkin Elmer). The binding buffer contains 25 mM 4-(2-hydroxyethyl)-1-piperazineethanesulfonic acid (HEPES), pH 7.4, 2.5 mM CaCl2, 1 mM MgCh, 0.1% (w/v) bacitracin (Research Products), 0.003% (w/v) Polyoxyethylenesorbitan monolaurate (TWEEN®-20), and Roche Complete™ Protease Inhibitors without EDTA. […] Next, 5 µL serially diluted compound or DMSO is transferred into Corning® 3632 clear bottom assay plates containing 45 µL assay binding buffer or unlabeled Gcg control (non-specific binding or NSB, at 1 µM final). […] Plates are sealed and mixed on a plate shaker (setting 6) for 1 minute and read with a PerkinElmer Trilux MicroBeta® scintillation counter after 12 hours of incubation/settling time at room temperature.
Raw CPM data for concentration curves of peptides, Gcg, GLP-1, or GIP are converted to percent inhibition by subtracting nonspecific binding (binding in the presence of excess unlabeled Gcg, GLP-1, or GIP, respectively) from the individual CPM values and dividing by the total binding signal, also corrected by subtracting nonspecific binding. Data are analyzed using four-parameter (curve maximum, curve minimum, IC50, Hill slope) nonlinear regression routines (Genedata Screener, version 12.0.4, Genedata AG, Basal, Switzerland). […] Values for Ki are reported as the geometric mean, with error expressed as the standard error of the mean (SEM) and n is equal to the number of independent replicates (determined in assays performed on different days). Geometric Means are calculated as follows: […]
The Ki Ratio (Ki for native control peptide/Ki for test compound) at each receptor and each species is calculated. The Ki Ratio is a rapid indication of the apparent affinity of a peptide compared to the native control peptide.
n=⅟x means that only one value out of the total number of replicates (x) is used to express the mean. SEM is only calculated when n=2 or greater non-qualified results exist. Means are expressed as GeoMetric means with the standard error of the mean (SEM) and the number of replicates (n) indicated in parenthesis.

hGLP-1R = hGLP-1R (Homo sapiens, UniProt P43220); test: Functional cAMP formation (HTRF) in HEK-293 clonal cells expressing hGLP-1R, 0.1% bovine casein, without or with 1.0% human serum albumin; format: cell-based; parameters: expressed in transfected cells; settings: 0.1% bovine casein and 1.0% human serum albumin, 37° C.; geometric mean; read-out: hGLP-1R EC50, nM (SEM, n)
Summary of the method: as §1

[2] = 0.1% bovine casein and 1.0% human serum albumin, 37° C.
[3] = HEK293, 0.1% bovine casein and 1.0% human serum albumin, 37° C., percent of maximal response to GIP(1-42)NH2
[4] = cAMP, incubated at 37° C., 0.1% bovine casein (no human serum albumin)

T2 sequence (P47871 26-477): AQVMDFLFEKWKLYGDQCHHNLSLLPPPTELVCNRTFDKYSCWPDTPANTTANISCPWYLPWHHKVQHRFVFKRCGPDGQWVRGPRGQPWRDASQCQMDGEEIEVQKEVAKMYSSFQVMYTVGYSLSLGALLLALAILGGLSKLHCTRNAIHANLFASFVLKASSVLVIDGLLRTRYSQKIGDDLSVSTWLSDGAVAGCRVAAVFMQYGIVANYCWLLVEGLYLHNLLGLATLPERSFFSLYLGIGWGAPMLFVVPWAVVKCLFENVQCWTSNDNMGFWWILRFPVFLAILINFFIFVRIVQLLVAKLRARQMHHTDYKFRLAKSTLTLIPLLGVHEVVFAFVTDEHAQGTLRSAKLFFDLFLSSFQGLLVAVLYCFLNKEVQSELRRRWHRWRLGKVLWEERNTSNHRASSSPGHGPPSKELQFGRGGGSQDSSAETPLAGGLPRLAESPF
T3 sequence (P47871 26-477): as above
hGLP-1R, sequence (P43220 24-463): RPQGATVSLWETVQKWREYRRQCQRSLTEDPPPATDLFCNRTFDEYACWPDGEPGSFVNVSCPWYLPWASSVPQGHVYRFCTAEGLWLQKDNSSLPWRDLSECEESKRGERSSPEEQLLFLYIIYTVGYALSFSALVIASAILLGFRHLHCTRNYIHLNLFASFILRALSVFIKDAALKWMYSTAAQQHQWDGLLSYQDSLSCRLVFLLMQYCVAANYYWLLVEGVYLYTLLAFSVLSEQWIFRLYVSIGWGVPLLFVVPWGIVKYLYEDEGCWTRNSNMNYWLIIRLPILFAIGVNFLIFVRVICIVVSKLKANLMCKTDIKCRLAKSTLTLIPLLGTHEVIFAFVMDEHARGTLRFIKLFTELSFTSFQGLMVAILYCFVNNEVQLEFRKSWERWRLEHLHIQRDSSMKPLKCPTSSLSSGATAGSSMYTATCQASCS

SMILES | EC50 (hGIPR; [2]) [nM] | Emax (hGIPR; [3]) [%] | EC50 (hGCGR; [2]) [nM] | EC50 (hGCGR; [4]) [nM] | Ki [1] [nM] | EC50 (hGLP-1R) [nM] | Emax (hGIPR; HEK293, percent of maximal response to GIP(1-42)NH2, 37° C., 0.1% bovine casein, arithmetic mean) [%] | EC50 (hGIPR; [4]) [nM]
CC[C@H](C)[C@H](NC(=O)[C@H](CC(C)C)NC(=O)[C@](C)(Cc1ccc(O)cc1)NC(=O)[C@@H](CCC(=O)O)NC(=O)[C@@H](NC(=O)[C@H](Cc1ccccc1)NC(=O)[C@H](CCC(=O)O)NC(=O)C(C)(C)NC(=O)[C@H](CCC(N)=O)NC(=O)[C@H](C)NC(=O)[C@H](CCCCNC(=O)COCCOCCNC(=O)COCCOCCNC(=O)CC[C@H](NC(=O)CCCCCCCCCCC(=O)O)C(=O)O)NC(=O)[C@H](CCCN)NC(=O)[C@H](CC(=O)O)NC(=O)[C@H](CC(C)C)NC(=O)[C@](C)(CC(C)C)NC(=O)[C@@H](NC(=O)[C@H](CO)NC(=O)[C@H](Cc1ccncc1)NC(=O)[C@H](CC(=O)O)NC(=O)[C@H](CO)NC(=O)[C@@H](NC(=O)[C@](C)(Cc1ccccc1F)NC(=O)[C@@H](NC(=O)CNC(=O)[C@H](CCC(=O)O)NC(=O)C(C)(C)NC(=O)[C@@H](N)Cc1ccc(O)cc1)[C@@H](C)O)[C@@H](C)O)[C@@H](C)CC)[C@@H](C)CC)C(=O)N[C@@H](CCC(=O)O)C(=O)NCC(=O)NCC(=O)N[C@@H](CCCCNC(=O)COCCOCCNC(=O)COCCOCCNC(=O)CC[C@H](NC(=O)CCCCCCCCCCC(=O)O)C(=O)O)C(=O)N[C@@H](CO)C(=O)N[C@@H](CO)C(=O)NCC(=O)N[C@@H](C)C(=O)N1CCC[C@H]1C(=O)N1CCC[C@H]1C(=O)N1CCC[C@H]1C(=O)N[C@@H](CO)C(N)=O [Example 6] | 0.0823 | 89.4 ± 1.74 | > 9950 | > 9950 | > 969 | 4.19 |  | 
CC[C@H](C)[C@H](NC(=O)[C@H](CC(C)C)NC(=O)[C@](C)(Cc1ccc(O)cc1)NC(=O)[C@@H](CCC(=O)O)NC(=O)[C@@H](NC(=O)[C@H](Cc1ccccc1)NC(=O)[C@H](CCC(=O)O)NC(=O)C(C)(C)NC(=O)[C@H](CCC(N)=O)NC(=O)[C@H](C)NC(=O)[C@H](CCCCNC(=O)COCCOCCNC(=O)COCCOCCNC(=O)CC[C@H](NC(=O)CCCCCCCCCCCCC(=O)O)C(=O)O)NC(=O)[C@H](CCCN)NC(=O)[C@H](CC(=O)O)NC(=O)[C@H](CC(C)C)NC(=O)[C@](C)(CC(C)C)NC(=O)[C@@H](NC(=O)[C@H](CO)NC(=O)[C@H](Cc1ccncc1)NC(=O)[C@H](CC(=O)O)NC(=O)[C@H](CO)NC(=O)[C@@H](NC(=O)[C@](C)(Cc1ccccc1F)NC(=O)[C@@H](NC(=O)CNC(=O)[C@H](CCC(=O)O)NC(=O)C(C)(C)NC(=O)[C@@H](N)Cc1ccc(O)cc1)[C@@H](C)O)[C@@H](C)O)[C@@H](C)CC)[C@@H](C)CC)C(=O)N[C@@H](CCCCNC(=O)COCCOCCNC(=O)COCCOCCNC(=O)CC[C@H](NC(=O)CCCCCCCCCCCCC(=O)O)C(=O)O)C(=O)NCC(=O)NCC(=O)N1CCC[C@H]1C(=O)N[C@@H](CO)C(=O)N[C@@H](CO)C(=O)NCC(=O)N[C@@H](C)C(=O)N1CCC[C@H]1C(=O)N1CCC[C@H]1C(=O)N1CCC[C@H]1C(=O)N[C@@H](CO)C(N)=O [Example 17] | 0.605 | 88.9 ± 2.36 | > 9950 | > 9950 | > 966 | 48.9 | 97.5 ± 5.04 | 0.0129
